Test systems include Malme-3M; HT-29; SK-MEL-28; NCI-H23; DU-145; UACC-62; COLO 205; SK-MEL-2; NCI-H522; HCC 2998; HCT-15; SF-268; T47D; OVCAR-3; HOP-92; TK-10; SK-OV-3; ACHN; SF-539; RPMI-8226.
Holding throughout (assay): NCI-60 cell line screen, 48 h

The structures appear in SMILES notation.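 Cells were grown in 96-well plates and exposed to each compound for 48 hours at five concentrations; endpoints were interpolated linearly between bracketing concentrations, or set to the highest concentration if not reached. GI50 is the concentration that inhibits growth by half.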 Calls of active or inactive are those of the source. No stated cut-off is given here; in the data, active = GI50 up to about 1.1 µM and inactive = higher.

As to `c1cncc(CSc2ncnc3[nH]cnc23)c1`, the GI50 in the experiment with Malme-3M, in the experiment with HT-29, in the experiment with SK-MEL-28, in the experiment with NCI-H23, with DU-145 and in the experiment on UACC-62 was > 100 µM (inactive) in each case. The GI50 in the experiment with COLO 205 is > 100 µM (inactive); with SK-MEL-2, > 100 µM (inactive); in the experiment with NCI-H522 it was > 100 µM (inactive); in the experiment on HCC 2998, > 100 µM (inactive); in the experiment with HCT-15 it was greater than 100 µM; in the experiment on SF-268, > 100 µM (inactive). For the same compound, the GI50 in the experiment on T47D, in the experiment on OVCAR-3, in the experiment with HOP-92, in the experiment with TK-10, in the experiment on SK-OV-3 and with ACHN was > 100 µM (inactive) each time.
Consider `COc1cc(NCc2ccc3nc(-c4ccccc4)c(N)nc3c2)cc(OC)c1OC`, for which the GI50 is 24.9 µM (inactive) with Malme-3M; 32.9 µM (inactive) in the experiment on HT-29; 27.4 µM (inactive) with SK-MEL-28; 21.4 µM (inactive) in the experiment on NCI-H23; 36.6 µM (inactive) in the experiment with DU-145; 29.7 µM (inactive) with SF-539. Also, the GI50 with UACC-62 was 29.4 µM (inactive); in the experiment on COLO 205 it was 18.8 µM (inactive); in the experiment with SK-MEL-2 it was 31 µM (inactive); with NCI-H522, 23.7 µM (inactive); with HCC 2998 it was 51.8 µM (inactive); in the experiment with HCT-15, 28.7 µM. Besides, the GI50 in the experiment on SF-268 was 34.8 µM (inactive); with T47D, 25.9 µM (inactive); with OVCAR-3 it was 25.6 µM (inactive); in the experiment on HOP-92, 12.5 µM (inactive); with TK-10 it was 41.4 µM (inactive); with SK-OV-3, 42.3 µM (inactive). For the same compound, the GI50 in the experiment with ACHN is 29.4 µM (inactive).
For `CCOC(=O)CCCNC(=O)CCCCC(=O)N(C)C`, the GI50 in the experiment on Malme-3M, with HT-29, in the experiment on SK-MEL-28, with NCI-H23, in the experiment on DU-145 and with SF-539 was > 100 µM (inactive) in each case. Moreover, the GI50 in the experiment with UACC-62, in the experiment with COLO 205, with RPMI-8226, in the experiment on SK-MEL-2, with NCI-H522 and with HCC 2998 was > 100 µM (inactive) throughout. Also, the GI50 in the experiment on HCT-15 is greater than 100 µM; in the experiment with SF-268, > 100 µM (inactive); in the experiment on T47D it was > 100 µM (inactive); in the experiment with OVCAR-3, > 100 µM (inactive); with HOP-92, > 100 µM (inactive); with TK-10, > 100 µM (inactive). Further, the GI50 with SK-OV-3 and in the experiment with ACHN was > 100 µM (inactive) throughout.
Regarding `CCC(NC(C)c1ccccc1)C(=O)c1ccc(OCc2ccccc2)c(OCc2ccccc2)c1` (configuration not stated), the GI50 with Malme-3M, in the experiment on HT-29, in the experiment with SK-MEL-28, with NCI-H23, in the experiment on DU-145 and in the experiment on SF-539 was > 100 µM (inactive) each time. Moreover, the GI50 was > 100 µM (inactive) in the experiment on UACC-62; > 100 µM (inactive) with COLO 205; > 100 µM (inactive) in the experiment on RPMI-8226; > 100 µM (inactive) in the experiment with NCI-H522; > 100 µM (inactive) in the experiment with HCC 2998; greater than 100 µM with HCT-15. For the same compound, the GI50 in the experiment with SF-268, with T47D, with OVCAR-3, in the experiment on HOP-92, in the experiment with TK-10 and with SK-OV-3 was > 100 µM (inactive) throughout. The GI50 in the experiment with ACHN is > 100 µM (inactive).
As to `Cc1nn2c(C(=O)N/N=C/c3ccccc3O)c(C)nc2s1`, the GI50 in the experiment with Malme-3M, with HT-29, in the experiment with SK-MEL-28, with NCI-H23, in the experiment with DU-145 and in the experiment with SF-539 was > 100 µM (inactive) each time. Moreover, the GI50 with UACC-62 was > 100 µM (inactive); in the experiment with COLO 205 it was 59.2 µM (inactive); in the experiment on NCI-H522, > 100 µM (inactive); in the experiment on HCC 2998, 55.1 µM (inactive); in the experiment with HCT-15, 41.9 µM; in the experiment on SF-268 it was > 100 µM (inactive). In addition, the GI50 in the experiment with T47D was 61.5 µM (inactive); in the experiment on OVCAR-3 it was 3.09 µM (inactive); in the experiment with HOP-92 it was > 100 µM (inactive); in the experiment with TK-10, > 100 µM (inactive); with ACHN, 56.1 µM (inactive).
Consider `CN(CCO)CC(=O)CC(O)(C(F)(F)F)C(F)(F)F`, for which the GI50 in the experiment with Malme-3M is 34.7 µM (inactive); in the experiment on HT-29, 30.7 µM (inactive); with SK-MEL-28 it was 42.6 µM (inactive); in the experiment with NCI-H23, 23.6 µM (inactive); with DU-145, 42.7 µM (inactive); in the experiment with SF-539 it was 34.7 µM (inactive). Further, the GI50 in the experiment with UACC-62 is 35.6 µM (inactive); with COLO 205, 35.3 µM (inactive); in the experiment on RPMI-8226 it was 32.1 µM (inactive); with SK-MEL-2 it was 33 µM (inactive); in the experiment on NCI-H522, 40.2 µM (inactive); with HCC 2998, 56.2 µM (inactive). The GI50 is 33.3 µM in the experiment on HCT-15; 28.4 µM (inactive) in the experiment on T47D; 26.5 µM (inactive) in the experiment on OVCAR-3; 22.5 µM (inactive) with HOP-92; 35.4 µM (inactive) in the experiment with TK-10; 26.4 µM (inactive) in the experiment on SK-OV-3. The GI50 in the experiment with ACHN was 27.7 µM (inactive).
As for `Cc1cccc(CP(Cc2cccc(C)c2)CC2(Cp3c4ccccc4c4ccccc43)COC2)c1`, the GI50 was 5.13 µM (inactive) with Malme-3M; 0.485 µM (active) in the experiment on HT-29; 13 µM (inactive) in the experiment on SK-MEL-28; 11.5 µM (inactive) with NCI-H23; 4.71 µM (inactive) in the experiment with DU-145; 12.1 µM (inactive) in the experiment with SF-539. In addition, the GI50 in the experiment on UACC-62 was 11.7 µM (inactive); in the experiment with COLO 205, 0.249 µM (active); in the experiment on RPMI-8226 it was 1.02 µM (active); with SK-MEL-2, 7.23 µM (inactive); in the experiment with NCI-H522, 1.18 µM (inactive); in the experiment on HCC 2998 it was 12.3 µM (inactive). Also, the GI50 in the experiment on HCT-15 was 31 µM; in the experiment with SF-268, 3.79 µM (inactive); in the experiment with T47D, 1.73 µM (inactive); in the experiment on OVCAR-3, 8.43 µM (inactive); in the experiment with HOP-92 it was 1.99 µM (inactive); with SK-OV-3, > 100 µM (inactive). Also, the GI50 in the experiment on ACHN is 4.71 µM (inactive).
Take `Cn1nc2ccc(Nc3cc(=O)[nH]c4ccc5nn(C)nc5c34)cc2n1`: the GI50 in the experiment with Malme-3M, in the experiment on HT-29, in the experiment with SK-MEL-28, with NCI-H23, with DU-145 and with SF-539 was > 100 µM (inactive) in each case. The GI50 is > 100 µM (inactive) in the experiment with UACC-62; > 100 µM (inactive) with COLO 205; > 100 µM (inactive) in the experiment on SK-MEL-2; 65.6 µM (inactive) in the experiment on NCI-H522; > 100 µM (inactive) in the experiment on HCC 2998; greater than 100 µM with HCT-15. The GI50 with SF-268, in the experiment with T47D, in the experiment with OVCAR-3, in the experiment with HOP-92, with TK-10 and in the experiment on SK-OV-3 was > 100 µM (inactive) throughout. Also, the GI50 in the experiment with ACHN is > 100 µM (inactive).
As to `CCOC1CN(C)/C(=N\c2cccc3ccccc23)S1` (configuration not stated), the GI50 in the experiment with Malme-3M, in the experiment on HT-29, in the experiment with SK-MEL-28, in the experiment on NCI-H23, with DU-145 and with SF-539 was > 10 µM (inactive) each time. Further, the GI50 with UACC-62 is > 10 µM (inactive); in the experiment on COLO 205, > 10 µM (inactive); in the experiment on RPMI-8226, > 10 µM (inactive); in the experiment with NCI-H522 it was > 10 µM (inactive); in the experiment on HCC 2998, > 10 µM (inactive); with HCT-15, greater than 10 µM. For the same compound, the GI50 in the experiment with SF-268, with T47D, with OVCAR-3, in the experiment on HOP-92, with TK-10 and in the experiment on SK-OV-3 was > 10 µM (inactive) each time. For the same compound, the GI50 with ACHN was > 10 µM (inactive).
Regarding `COC(=O)CC1C2CC3C(C2=O)C13` (configuration not stated), the GI50 with Malme-3M, in the experiment on HT-29, with SK-MEL-28, with NCI-H23, in the experiment with DU-145 and in the experiment on SF-539 was > 100 µM (inactive) each time. Moreover, the GI50 in the experiment with UACC-62 is > 100 µM (inactive); with COLO 205 it was > 100 µM (inactive); in the experiment with SK-MEL-2, > 100 µM (inactive); in the experiment with NCI-H522, > 100 µM (inactive); in the experiment on HCC 2998 it was > 100 µM (inactive); in the experiment with HCT-15, greater than 100 µM. For the same compound, the GI50 with SF-268, in the experiment with T47D, in the experiment with OVCAR-3, in the experiment with HOP-92, with TK-10 and in the experiment on SK-OV-3 was > 100 µM (inactive) each time. The GI50 with ACHN is > 100 µM (inactive).
As for `NC(=O)NC(=O)CCC(NS(=O)(=O)c1ccccc1)C(=O)NC(N)=O` (configuration not stated), the GI50 with Malme-3M, in the experiment with HT-29, in the experiment with SK-MEL-28, with NCI-H23, in the experiment with DU-145 and in the experiment with SF-539 was > 100 µM (inactive) each time. In addition, the GI50 was > 100 µM (inactive) in the experiment with UACC-62; > 100 µM (inactive) in the experiment on COLO 205; > 100 µM (inactive) in the experiment with SK-MEL-2; > 100 µM (inactive) in the experiment on NCI-H522; > 100 µM (inactive) in the experiment on HCC 2998; greater than 100 µM in the experiment with HCT-15. Further, the GI50 with SF-268, in the experiment with T47D, in the experiment with OVCAR-3, with HOP-92, in the experiment with TK-10 and with SK-OV-3 was > 100 µM (inactive) each time. In the experiment with ACHN, the GI50 is > 100 µM (inactive).

The record behind these values is ChEMBL document CHEMBL1201862, “PubChem BioAssay data set” (2004).
